Measured values taken from US8853277B2, “Nitroxide therapy for the treatment of von Hippel—Lindau disease (VHL) and renal clear cell carcinoma (RCC)” (The United States of America, as represented by the …, priority 2009, dated 2014).

Assays:
[1] = tested on: 786-0 (VHL−/−) cells; test: 786-0 (VHL−/−) subcutaneous tumor growth in SCID/BEIGE mice, Tempol in drinking water; assay type: in vivo; conditions: 2 mM in drinking water
Protocol: The tumor inhibitory effect of stable nitroxides were studied in vivo using mice with mutations in the Prkdc gene (SCID, which is associated severe combined immunodeficiency), and bg (BEIGE) gene. Twenty female SCID/BEIGE mice (C.B-Igh-1b/GbmsTac-Prkdc^scid-Lyst^bg N7 (CBSCBG) from Taconic (Hudson, N.Y.)) were injected with about 8 million 786-0 (VHL−/−) cells subcutaneously on the right flank. Starting on the day of injection, Tempol was diluted in PBS and added twice a week to the water bottle feeding a group of ten injected mice. The final concentration of Tempol in water was 2 mM. The control group of ten remaining mice received an equivalent amount of PBS in water twice a week. The volume of the tumors and weight of the mice were recorded once a week for up to 100 days. When the control group tumor volume reached 1 cm^3, tumors of 8 mice maintained as controls were harvested. At the same time, 4 of the animals maintained on Tempol were harvested and fast-frozen or paraffin embedded for further experiments. The average tumor volume as a function of time for each group is depicted in FIG. 2.

[2] = tested on: HIF-2α; test: Western blot of HIF-2α in nuclear proteins of 786-0 RCC cells; assay type: cell-based, human; conditions: 786-0 cells, 5 mM, two to four hours, compared to Tempol-H or growth medium (control)
Protocol: The human sporadic RCC cell line 786-0 was obtained from the American Tissue Culture Collection (ATCC) (Manassas, Va.). This cell line contains a single inactivated VHL allele, produces no VHL protein, is deficient for HIF-la expression, and constitutively expresses HIF-2α. Gnarra et al., Nat. Genet., 7: 85-90 (1994) and Maxwell et al., Nature, 399: 271-275 (1999). Cultures of 786-0 cells were pre-incubated for one hour in KREB's buffer (115 mM NaCl, 5.9 mM KCl, 1.2 mM MgCl2, 1.2 mM NaH2PO4, 1.2 mM Na2SO4, 2.5 mM CaCl2, and 25 mM NaHCO3) at pH 7.4 and with 4.5 g/L of glucose. Cells were then treated for two to four hours with (i) Tempol (5 mM) obtained from Sigma Aldrich (St. Louis, Mo.), (ii) its non-functional hydroxylamine (protonated, reduced) variant: 1,4-dihydroxy-2,2,6,6-tetramethylpiperidine (Tempol-H) (5 mM) (Sigma Aldrich), or (iii) growth medium as a negative control. Cells were harvested, nuclear protein extractions performed, and protein concentrations were measured by BCA assay from Pierce (Rockford, Ill.). Aliquots of extracted nuclear proteins (20 μg) were loaded in a 7.5% polyacrylamide gel and separated by sodium dodecyl sulfate polyacrylamide gel electrophoresis (SDS-PAGE). Proteins were transferred to PVDF membranes, which were then blocked for one to sixteen hours in a solution of 5% dry milk. […]

[3] = tested on: 786-0 cells (VHL−/−); test: 786-0 (VHL−/−) subcutaneous tumor growth in SCID/BEIGE mice, Tempol in chow; assay type: in vivo; conditions: 10 mg/g of food, after ten weeks, compared to control mice fed normal chow (P<0.05)
Protocol: Twenty female SCID/BEIGE mice were injected with 786-0 cells (VHL−/−) subcutaneously on the right flank, as described in Example 2. Starting on the day of injection, a control group of ten injected mice were fed standard chow (NIH-031, Zeigler Brothers, Inc. (Gardners, Pa.)) and a group ten injected mice received chow supplemented with Tempol. The Tempol diet supplement was made by a cold press technique from powdered Tempol uniformly mixed with bacon-flavored mouse chow (Bio-Serv Inc. (Frenchtown, N.J.)) providing a Tempol concentration of 10 mg/g of food. Bacon-flavored chow without Tempol was also added to the control diet. The volume of the tumors and the weight of the mice were recorded once a week for more than ten weeks. Tumor volumes as a function of time are depicted in FIG. 3. When the tumor volumes of the control group reached 1 cm^3, the tumors of all mice were harvested and fast-frozen or paraffin embedded for further experiments.

[4] = tested on: HIF2 α; test: HIF-2α levels in eight other cell lines from patients with VHL mutations; assay type: cell-based, human; conditions: Tempol treatment

CC1(C)CC(O)CC(C)(C)N1[O] [Tempol, 4-hydroxy-2,2,6,6-tetramethylpiperidine-1-oxyl]
tumor size when sacrificed at the 80 day time point ([1]; 80 days, versus control animals): smaller tumors | average tumor volume as compared to the control group ([1]; SCID/BEIGE mice, up to 100 days): markedly lower average tumor volume | tumor size at 100 days ([1]; four mice maintained up to 100 days): quite small | HIF-2α levels [2]: significantly reduced | tumor growth [3]: reduced by a statistically significant amount | HIF2 α levels [4]: reduced HIF2 α levels significantly
